Laboratory results published in US20230332232A1, “COMPOSITIONS AND METHODS FOR DIAGNOSING AND TREATING A DYSTONIA” (Duke University, priority 2020, published 2023).

Test system: DYT1 knockin (Tor1a^delGAG/+) murine embryonic fibroblasts (MEFs)
Assay: microRNA-seq of EVs from DYT1 MEFs treated with drug, compared with non-treated DYT1 MEFs
Assay type: cell-based, mouse
Conditions: for Abs Z Score Sum (Geno + RTV) / RTV Direction Opposite dE?: EVs of DYT1 (Het) MEFs
Description: In addition to proteomic analysis, total RNA-seq and microRNA-seq was performed on RNA isolated in parallel from the EV samples of Cohort 2. As with the proteomic analysis, one biological replicate was prepared from 3 distinct biological clonal cell lines for each genotype. Here, EVs were isolated from conditioned cell culture media by 18 hour ultracentrifugation at 100,000 g. RNA was extracted using the Qiagen miRNeasy Micro Kit (Cat. No. 217084) according to the manufacturer's protocol. Two RNA fractions were extracted from each sample, one enriched in coding and non-coding RNA species>200 nt (“Total RNA” fraction) and one enriched for small RNAs<200 nt (“miRNA” fraction). RNA samples were then submitted to the Duke Sequencing and Genomic Technologies shared resource for further quality control and sequencing. Samples were assessed for concentration and integrity by Qubit and Fragment Analyzer. The miRNA fractions were 4.16 ng/μL-47.57 ng/μL and total RNA fractions were 3.8 ng/μL-43.6 ng/μL. The small RNA library was prepared using the QIAseq miRNA Library Kit (Cat No./ID: 331505) and sequenced on the Illumina NextSeq 500 High-Output platform with 75 bp single-reads. The total RNA library was prepared using the Illumina TruSeq Stranded Total RNA-seq Kit with Ribozero Gold ribosomal RNA reduction and sequenced on the Illumina NovaSeq 6000 S1 platform with 100 bp paired-end reads. Sequencer lane pooling and read depth are attached in the Excel data summary (See “RNA QC” Tab). Data processing and analysis were performed in collaboration with the Duke Genomic Analysis and Bioinformatics shared resource. RNA-seq data was processed using the TrimGalore toolkit (http://www.bioinformatics.babraham.ac.uk/projects/trim_galore), which employs Cutadapt(Martin M. (2011) EMBnet.journal. 17(1):10-12) to trim low quality bases and Illumina sequencing adapters from the 3' end of the reads. Only reads that were 20 nt or longer after trimming were kept for further analysis. Reads were mapped to the mouse genome and transcriptome ([…], et al. (2012) Nucleic Acids Res. 40(Database issue):[…]-97) using the STAR RNA-seq alignment tool (Dobin A, et al. (2013). Bioinformatics. 29(1):15-21). If the reads mapped to a single genomic location, then they were kept for subsequent analysis. Gene counts were compiled using the HTSeq tool (http://www-huber.embl.de/users/anders/HTSeq/). Only genes that had at least 10 reads in any given library were used in subsequent analysis. Normalization and differential expression was carried out using the DESeq26 Bioconductor (Huber W, et al. (2015) Nat Methods. 12(2):115-121) package with the R statistical programming environment (www.r-project.org). […] 694 miRNAs were initially examined with respect to QC, genotype, RTV effects, and ISRIB effects. This subset was the “Full miRNA” subset. FIG. 9A and FIG. 9B show the RTV effect on EV composition in DYT1 cells compared to WT cells for 279 miRNAs, respectively. […] Beginning with the 694 miRNAs in the “Full miRNA” subset, more than 60 molecules were detected in either WT cells or DYT1 cells (WT or Het UMI>60). […] The candidate miRNAs were ranked by the sum of genotype-dependent absolute Z-scores and RTV-induced absolute Z-scores (Abs Z Score Sum (Geno+RTV)). This subset was the “miRNA-Ritonavir Therapeutic Efficacy” subset and contained 201 miRNAs.

[1] = sum of genotype and RTV absolute Z-scores

SMILES: CC(C)c1nc(CN(C)C(=O)N[C@H](C(=O)N[C@@H](Cc2ccccc2)C[C@H](O)[C@H](Cc2ccccc2)NC(=O)OCc2cncs2)C(C)C)cs1 [RTV, Ritonavir]
- RTVvHet Z Score (mmu-miR-183-5p): 3.42
- Abs Z Score Sum (Geno + RTV) (mmu-miR-183-5p): 5.55
- RTV Direction Opposite dE? (mmu-miR-183-5p): yes
- RTVvHet Z Score (mmu-miR-185-5p): 0.53
- RTVvHet Z Score (mmu-miR-186-5p): 0.33
- RTVvHet Z Score (mmu-miR-187-3p): 1.13
- Abs Z Score Sum (Geno + RTV) (mmu-miR-187-3p): 3.96
- RTV Direction Opposite dE? (mmu-miR-187-3p): yes
- RTVvHet Z Score (mmu-miR-188-5p): 0.34
- RTVvHet Z Score (mmu-miR-190b-5p): 0.28
- RTVvHet Z Score (mmu-miR-191-5p): 0.28
- RTVvHet Z Score (mmu-miR-192-5p): 0.54
- Abs Z Score Sum (Geno + RTV) (mmu-miR-192-5p): 3.38
- RTV Direction Opposite dE? (mmu-miR-192-5p): yes
- RTVvHet Z Score (mmu-miR-194-5p): 0.46
- RTVvHet Z Score (mmu-miR-199a-3p): 1.07
- RTV Direction Opposite dE? (mmu-miR-199a-3p): yes
- RTVvHet Z Score (mmu-miR-199b-3p): 1.17
- RTV Direction Opposite dE? (mmu-miR-199b-3p): yes
- RTVvHet Z Score (mmu-miR-206-3p): 0.20
- RTVvHet Z Score (mmu-miR-214-5p): 1.09
- RTVvHet Z Score (mmu-miR-219a-5p): 1.08
- RTVvHet Z Score (mmu-miR-223-3p): −0.59
- RTVvHet Z Score (mmu-miR-224-5p): 0.28
- RTVvHet Z Score (mmu-miR-296-3p): 3.08
- Abs Z Score Sum (Geno + RTV) (mmu-miR-296-3p): 5.10
- RTV Direction Opposite dE? (mmu-miR-296-3p): yes
- RTVvHet Z Score (mmu-miR-298-5p): 3.59
- Abs Z Score Sum (Geno + RTV) (mmu-miR-298-5p): 6.72
- RTV Direction Opposite dE? (mmu-miR-298-5p): yes
- RTVvHet Z Score (mmu-miR-299a-3p): 1.31
- RTVvHet Z Score (mmu-miR-301a-3p): 1.45
- RTVvHet Z Score (mmu-miR-301b-3p): 1.05
- RTVvHet Z Score (mmu-miR-320-3p): 0.76
- RTVvHet Z Score (mmu-miR-322-5p): 0.75
- RTVvHet Z Score (mmu-miR-324-3p): 0.82
- RTVvHet Z Score (mmu-miR-335-Sp): 1.02
- RTVvHet Z Score (mmu-miR-340-5p): 1.09
- RTVvHet Z Score (mmu-miR-344-3p): 1.30
- Abs Z Score Sum (Geno + RTV) (mmu-miR-344-3p): 4.24
- RTV Direction Opposite dE? (mmu-miR-344-3p): yes
- RTVvHet Z Score (mmu-miR-350-3p): 0.41
- RTVvHet Z Score (mmu-miR-361-5p): 0.71
- RTVvHet Z Score (mmu-miR-362-3p): 1.05
- RTV Direction Opposite dE? (mmu-miR-362-3p): yes
- RTVvHet Z Score (mmu-miR-362-5p): 0.83
- Abs Z Score Sum (Geno + RTV) (mmu-miR-362-5p): 3.62
- RTV Direction Opposite dE? (mmu-miR-362-5p): yes
- RTVvHet Z Score (mmu-miR-378a-3p): 1.25
- RTVvHet Z Score (mmu-miR-450a-5p): 0.39
- RTVvHet Z Score (mmu-miR-450b-3p): 0.31
- RTVvHet Z Score (mmu-miR-451a): −1.37
- RTVvHet Z Score (mmu-miR-483-5p): 0.01
- RTVvHet Z Score (mmu-miR-500-3p): 1.09
- RTVvHet Z Score (mmu-miR-503-3p): 0.99
- RTVvHet Z Score (mmu-miR-532-5p): 0.52
- Abs Z Score Sum (Geno + RTV) (mmu-miR-532-5p): 3.77
- RTV Direction Opposite dE? (mmu-miR-532-5p): yes
- RTVvHet Z Score (mmu-miR-542-3p): 0.81
- RTVvHet Z Score (mmu-miR-542-5p): 2.00
- Abs Z Score Sum (Geno + RTV) (mmu-miR-542-5p): 7.20
- RTV Direction Opposite dE? (mmu-miR-542-5p): yes
- RTVvHet Z Score (mmu-miR-582-3p): 0.20
- RTVvHet Z Score (mmu-miR-652-3p): 0.93
- RTVvHet Z Score (mmu-miR-671-5p): 1.76
- RTV Direction Opposite dE? (mmu-miR-671-5p): yes
- RTVvHet Z Score (mmu-miR-700-3p): 0.49
- RTVvHet Z Score (mmu-miR-708-5p): 1.28
- RTVvHet Z Score (mmu-miR-872-5p): 0.68
- RTVvHet Z Score (mmu-miR-1291): 1.91
- Abs Z Score Sum (Geno + RTV) (mmu-miR-1291): 3.34
- RTV Direction Opposite dE? (mmu-miR-1291): yes
- RTVvHet Z Score (mmu-miR-1843a-5p): 0.28
- RTVvHet Z Score (mmu-miR-3102-3p): 0.95
- RTVvHet Z Score (mmu-miR-3535): 1.43
- Abs Z Score Sum (Geno + RTV) (mmu-miR-3535): 3.67
- RTV Direction Opposite dE? (mmu-miR-3535): yes
- RTVvHet Z Score (mmu-miR-5121): 2.65
- Abs Z Score Sum (Geno + RTV) (mmu-miR-5121): 4.47
- RTV Direction Opposite dE? (mmu-miR-5121): yes
- Abs Z Score Sum (Geno + RTV) (mmu-miR-30h-5p): 3.25
- RTV Direction Opposite dE? (mmu-miR-30h-5p): yes
- RTVvHet Z Score (mmu-miR-30d-5p): 0.70
- RTVvHet Z Score (mmu-miR-344d-3p): 1.98
- Abs Z Score Sum (Geno + RTV) (mmu-miR-344d-3p): 4.51
- RTV Direction Opposite dE? (mmu-miR-344d-3p): yes
- mmu-miR-147-5p: Abs Z Score Sum (Geno + RTV) [1]: 0.20
- mmu-miR-181a-1-3p: Abs Z Score Sum (Geno + RTV) [1]: 0.18
- mmu-miR-331-5p: Abs Z Score Sum (Geno + RTV) [1]: 0.00
- mmu-miR-668-3p: Abs Z Score Sum (Geno + RTV) [1]: 0.42
- mmu-miR-1930-5p: Abs Z Score Sum (Geno + RTV) [1]: 0.38
- mmu-miR-1943-5p: Abs Z Score Sum (Geno + RTV) [1]: 0.23
- mmu-miR-1955-5p: Abs Z Score Sum (Geno + RTV) [1]: 0.00
- mmu-miR-3072-5p: Abs Z Score Sum (Geno + RTV) [1]: 0.38
- mmu-miR-3076-3p: Abs Z Score Sum (Geno + RTV) [1]: 0.00
- mmu-miR-3088-3p: Abs Z Score Sum (Geno + RTV) [1]: 0.18
- mmu-miR-6936-3p: Abs Z Score Sum (Geno + RTV) [1]: 0.38
- mmu-miR-7224-3p: Abs Z Score Sum (Geno + RTV) [1]: 0.22
- mmu-miR-467d-3p: Abs Z Score Sum (Geno + RTV) [1]: 0.32
